Earlier results as cited in patent publication US20150366978A1, “Compositions Containing Chondroitin Sulphate, Proteolytic Enzymes and Sulphydryl Compounds for Improving the Bioavailability of Chondroitin Sulphate” (GNOSIS S.P.A., priority 2013, published 2015).

Legend:
[1] = oral

bromelain
oral bioavailability: around 40%

chondroitin sulphate [CS]
total uptake of CS by the intestinal mucosa ([1]; including oligosaccharides, % of the polysaccharide ingested): 20-23%

chondroitin sulphate [high-molecular-weight CS]
absorption of high-molecular-weight CS ([1]; absorbed as intact polysaccharide): 1-5%
